TGI and GI50 data for five compounds are collected here from PubChem BioAssay (NCI).

Molecules are shown by their SMILES.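 Values below derive from 48-hour exposures of cells grown in 96-well plates, with endpoints linearly interpolated between the two concentrations bracketing the appropriate inhibition level. Abbreviation: GI50, concentration required for 50% inhibition of growth. At the TGI there is no net growth.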 Where a SMILES comes first, the peptide text is derived from it. Bridges are numbered along the chain shown (N, C = ends). Roman numbers before positions name the chains, in order. [ ]: non-standard residue; d: D form. The star is where a group is joined. Heptadecanoyl = CCCCCCCCCCCCCCCCC(=O)*; Phg = N[CH](C(=O)O)c1ccccc1

Some test systems named below: BT-549 breast; MALME-3M melanoma; SK-MEL-5 melanoma; COLO 205 colon; A498 renal; UO-31 renal; U251 CNS; NCI-H226 lung; A549 NSCLC; HL-60(TB) leukemia.
Holding throughout (assay): inhibition of tumour cell growth, NCI panel, 48 h

Take `Nc1nc(Cl)nc2c1ncn2C1CCC(CO)O1` (stereo unspecified): the TGI with BT-549 breast, with MALME-3M melanoma, in the experiment with SK-MEL-5 melanoma, in the experiment with COLO 205 colon, in the experiment with A498 renal and in the experiment on UO-31 renal was > 100 µM throughout. The TGI with U251 CNS and in the experiment with NCI-H226 lung was > 100 µM each time.
On to `CN(C)C(=S)SCc1ccccc1`, for which the TGI with BT-549 breast, in the experiment with MALME-3M melanoma, in the experiment on SK-MEL-5 melanoma, in the experiment on COLO 205 colon, in the experiment with A498 renal and with UO-31 renal was > 100 µM throughout. Also, the TGI in the experiment on U251 CNS, in the experiment on NCI-H226 lung, in the experiment with A549 NSCLC and with HL-60(TB) leukemia was > 100 µM in each case.
Turning to `Cc1cccc(C(O)c2ccccn2)c1O` (stereo unspecified), the TGI with BT-549 breast, in the experiment with MALME-3M melanoma, in the experiment on SK-MEL-5 melanoma, in the experiment on COLO 205 colon, in the experiment with UO-31 renal and with U251 CNS was > 100 µM throughout. Also, the TGI with NCI-H226 lung, with A549 NSCLC and in the experiment with HL-60(TB) leukemia was > 100 µM each time.
Turning to `N#CC(C#N)=Cc1ccc(-c2ccc(-c3nc4ccccc4s3)cc2)s1`, the GI50 in the experiment on BT-549 breast was 31.1 µM; with MALME-3M melanoma, 16.6 µM; in the experiment on SK-MEL-5 melanoma, 11.8 µM; in the experiment with COLO 205 colon, 23.7 µM; in the experiment with A498 renal it was 18.7 µM; in the experiment on UO-31 renal, 13.9 µM. The GI50 in the experiment on U251 CNS was 14.9 µM; in the experiment on NCI-H226 lung, 14.7 µM; in the experiment on A549 NSCLC, 13.8 µM. Moreover, the TGI was 85.2 µM in the experiment with BT-549 breast; 54.5 µM in the experiment on MALME-3M melanoma; 31.7 µM in the experiment on SK-MEL-5 melanoma; > 100 µM in the experiment on COLO 205 colon; 41.1 µM in the experiment with A498 renal; 30.2 µM in the experiment with UO-31 renal. Also, the TGI was 31.9 µM in the experiment with U251 CNS, 36.8 µM in the experiment with NCI-H226 lung and > 100 µM in the experiment on A549 NSCLC.
With `CCCCCCCCCCCCCCCCC(=O)N1CCCC1C(=O)NCC(=O)NC(C(=O)N1CCCC1C(=O)NC(CO)C(=O)NC(Cc1ccc(O)cc1)C(=O)NC(CCCCNC(=O)C1CCCN1C(=O)C(CCCCN)NC(=O)C(CCCCN)NC(=O)C(CCCCN)NC(=O)C(CCCNC(=N)N)NC(=O)C(CCCCN)NC(=O)C(N)C(C)C)C(=O)NC(CC(C)C)C(=O)NC(CCCNC(=N)N)C(=O)N1CCCC1C(=O)NCC(N)=O)c1ccccc1` (stereo unspecified) (I: Heptadecanoyl-PG[Phg]PSYKLRPG-NH2 / II: H-VKRKKKP; amide I:7-II:C; configuration not given here), the GI50 in the experiment with BT-549 breast is 36.5 µM; in the experiment with SK-MEL-5 melanoma, 31.3 µM; in the experiment on COLO 205 colon, 4.75 µM; with A498 renal, 76.3 µM; with UO-31 renal, 32.4 µM; in the experiment on NCI-H226 lung it was 22.1 µM. In addition, the GI50 with A549 NSCLC is 23.9 µM; in the experiment with HL-60(TB) leukemia, 21.3 µM. For the same compound, the TGI in the experiment on BT-549 breast is 89.3 µM; in the experiment on SK-MEL-5 melanoma it was > 100 µM; in the experiment on COLO 205 colon, 18.4 µM; in the experiment with A498 renal, > 100 µM; in the experiment on UO-31 renal it was > 100 µM; in the experiment on NCI-H226 lung it was 49.3 µM. Further, the TGI with A549 NSCLC is 53.3 µM; in the experiment on HL-60(TB) leukemia, > 100 µM.
